Test results as given in patent publication US8343913B1, “Hsp90, buffering and drug resistance” (priority 2004, dated 2013).
“Also recorded” adds a separate entry of the source.

What was measured:
[1] = test system: S. cerevisiae; assay: Fluconazole MIC test (broth microdilution) with Hsp90 or calcineurin inhibitors; assay type: cell-based, Saccharomyces cerevisiae
Procedure: (§1) Cell densities of overnight cultures were determined and dilutions were prepared such that ˜10^3 cells were inoculated into each well. Radicicol (RAD, A.G. Scientific, Inc.) and geldanamycin (GdA, Alexis Biochemicals) were employed to inhibit Hsp90 at the concentrations indicated in the figure legends (1-5 μM). Cyclosporin A (CsA, CalBiochem) was employed to inhibit calcineurin at a concentration of 20 μM. Dimethyl sulfoxide (DMSO, Sigma-Aldrich Co.) was the solvent for RAD, GdA, and CsA. Thus, the maximum final DMSO concentration (0.14%) was included in FL MIC tests performed in the absence of RAD, GdA, or CsA to control for any solvent effects.
(§2) After 48 hours, plates were sealed with a clear film (Axygen Scientific), re-suspended by agitation, and absorbance was determined at 595 nm with the Multiskan Ascent photometer (Thermo Labsystems, Thermo Electron Corporation). Absorbance values were corrected for background from the corresponding medium. MICs were determined as the concentration of FL that inhibits fungal growth by 50% relative to the FL-free growth control. The MIC of each strain was tested at least two independent times in duplicate. Most strains were tested in rich medium (half-strength YPD) and SD medium. C. albicans clinical isolates were also tested in the synthetic defined medium that is the standard for clinical testing, RPMI (9).

[2] = test system: C. albicans; conditions: synthetic defined media; previous studies; cited from earlier work
[3] = test system: C. albicans; assay: Fluconazole MIC test (broth microdilution); assay type: cell-based, Candida albicans; conditions: CAI4 and CaERG3/erg3
Procedure: as §1
as §2, with “MICs were determined as the concentration of FL that inhibits fungal growth by 50% relative to the FL-free growth control.” left out

[4] = test system: A. terreus soil isolate ATCC 10020; assay: Etest strip drug resistance; assay type: cell-based, Aspergillus terreus; conditions: rich medium, 35° C., 36 hours
Procedure: FIG. 6. Hsp90 potentiates resistance to different drugs in C. albicans and A. terreus. […] Plates contained the Hsp90 inhibitor RAD (5 μM) or the calcineurin inhibitor CsA (20 μM). The MIC value is where the inhibition ellipse intersects the strip.
Resistance of C. albicans clinical isolate T118 and A. terreus soil isolate ATCC 10020 to FL, voriconazole (VO), and caspofungin (CS) was determined with Etest strips (AB Biodisk) on rich medium (half-strength YPD). For C. albicans, standardized inoculum was prepared as described above and ˜10^5 cells were plated on medium with the Hsp90 inhibitor RAD (5 μM), the calcineurin inhibitor CsA (20 μM), or the solvent control (0.14% DMSO), prior to application of a test strip. Plates were photographed after 36 hours at 30° C. in the dark. For A. terreus, inoculum was prepared according to a standard protocol (15) and ˜10^5 conidia were plated prior to application of a test strip. Plates were photographed after 36 hours at 35° C. in the dark.

[5] = test system: C. albicans; assay: Selection of fluconazole-resistant mutants on plates; assay type: cell-based, Candida albicans; conditions: 128 μg/ml fluconazole and 1 μM RAD; CAI4 and CaERG3/erg3; 7 days, 30° C.
Procedure: Strains of C. albicans were grown at 30° C. in SD prior to plating ˜10^4 cells on SD plates with 128 μg/ml FL or with both 128 μg/ml FL and 1 μM RAD. Plates were photographed after 7 days at 30° C. in the dark.

[6] = test system: C. albicans; assay: Serial cell dilution (spotting) assay, growth with RAD; assay type: cell-based, Candida albicans; conditions: 1 μM RAD; CAI4 and CaERG3/erg3; SD medium, 30° C., two days
Procedure: Serial dilutions of CAI4 and CaERG3/erg3 were spotted on SD medium (upper panel) and medium supplemented with 1 μM RAD (bottom panel). Plates were photographed after two days at 30° C. in the dark.
(§3) Strains were grown to saturation in SD medium and cell concentrations were standardized based on optical density. Five-fold dilutions, starting from ˜4×10^6 cells/ml, were spotted on media, as indicated in the figure legends, using a spotter (Frogger, V&P Scientific, Inc). The plates were photographed after 2-3 days in the dark at the indicated temperature. For all spotting assays in which Hsp90 or calcineurin inhibitors were employed, the corresponding plates without these inhibitors was supplemented with the maximum final concentration of DMSO used (0.14%), as a solvent control.

[7] = test system: S. cerevisiae; assay: Serial cell dilution (spotting) assay with or without fluconazole; assay type: cell-based, Saccharomyces cerevisiae; conditions: GdA 5 μM or RAD 1 μM; 64 μg/ml fluconazole; rich medium, 30° C.; concordant by MIC testing
Procedure: FIG. 4. Hsp90 and calcineurin are required for FL resistance acquired through diverse mutations. […] Top two panels, deletion mutants. Bottom panel, control strains obtained by rapid (R1-3) and gradual (G1-3) selection. (A) Hsp90 was inhibited by GdA (5 μM) or RAD (1 μM), as indicated. (B) Calcineurin was inhibited by cyclosporin A (CsA, 20 μM).
as §3

[8] = GdA 5 μM or RAD 5 μM, SD medium, 30° C.

For `OC(Cn1cncn1)(Cn1cncn1)c1ccc(F)cc1F` [fluconazole], the “fluconazole concentration at which growth is completely arrested” value ([1]; all strains (Lo90, Re90, Hi90), SD medium, 23° C.) is listed as 16 µg/mL, the “fluconazole sensitivity of clinical isolate T118” value [2] is listed as “sensitive” and the “fluconazole concentration at which growth is completely arrested” value [3] is listed as 16 µg/mL.

For `C[C@@H](c1ncncc1F)[C@](O)(Cn1cncn1)c1ccc(F)cc1F` [voriconazole], the “voriconazole resistance of FLR strains” value ([1]; all FLR strains obtained by rapid fluconazole selection) was “resistant” and the “sensitivity of A. terreus to voriconazole relative to fluconazole” value [4] was “much more sensitive to this azole than to fluconazole”.

In the case of `C[C@@H]1C[C@H]2O[C@@H]2/C=C\C=C\C(=O)Cc2c(Cl)c(O)cc(O)c2C(=O)O1` [RAD, radicicol], the “effect of inhibitor alone on growth” value ([1]; GdA 5 μM or RAD 5 μM, 0 μg/ml fluconazole, SD medium, 30° C.) is reported as “did not impair growth on their own”, the “effect on fluconazole resistance of G1-3 strains (gradual selection)” value [1, 8] is reported as “neither GdA nor RAD altered resistance” and the “effect on fluconazole resistance of R1-3 strains (rapid selection)” value [1, 8] is reported as “abolished fluconazole resistance”. For the same molecule, the “effect on fluconazole sensitivity of progenitor strains” value [1, 8] was “had no effect”, the “colonies recovered on selection plates with fluconazole plus RAD” value [5] was “no colonies were recovered” and the “effect on growth in the absence of fluconazole” value [6] was “does not impair growth; also recorded: had no effect on growth”. For the same molecule, the “effect on fluconazole resistance of eleven deletion mutants” value [7] was “reduced the fluconazole resistance in all of them”.
